Assay results reported in patent US11172673B2, “Platelet storage methods and compositions for same” (Children's Hospital Medical Center, priority 2014, dated 2021).
“Also recorded” adds a separate entry of the source.

Assays:
hematopoietic stem cell = conditions: cited from earlier work
Cdc42 = biological target: T1, Cdc42 (Homo sapiens, UniProt P60953); test: Cdc42 activation in platelets, GST-PAK pulldown assay; assay type: cell-based; conditions: Casin 10 μM, FIG. 3B
T1 construct: endogenous in cells; host or cells: human platelets
T1 sequence (P60953 whole entry): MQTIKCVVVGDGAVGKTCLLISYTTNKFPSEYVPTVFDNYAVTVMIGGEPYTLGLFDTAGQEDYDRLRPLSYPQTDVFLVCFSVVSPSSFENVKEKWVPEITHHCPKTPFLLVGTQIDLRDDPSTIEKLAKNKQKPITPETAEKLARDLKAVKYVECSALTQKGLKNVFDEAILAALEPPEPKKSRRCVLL
Method: FIG. 3B. Collagen-induced Cdc42 activation is inhibited by Casin (10 μM) in a GST-PAK pulldown assay.
(§1) Applicant has tested the ability of three chemical inhibitors, CASIN, NSC23766 and G04, targeting Cdc42, Rac1 and RhoA, respectively (FIG. 2), to inhibit the activity of the GTPases and the consequent cytoskeleton-dependent functions of human platelets. A rationally developed inhibitor of Cdc42 with activity on activation by guanine nucleotide exchange factors is CASIN (29, Nature Biotech under revision). CASIN was recently discovered by Zheng group as a small molecule that recognizes a pocket domain that specifically blocks the ability of GEF interaction with Cdc42 (FIG. 3A). CASIN is found to suppress of hematopoietic stem cell aging through its specific Cdc42 inhibitory activity (29). In platelets, it inhibits Cdc42 activation (FIG. 3B) and prevents collagen-induced platelet shape changes (FIG. 3C).

platelets [1] = test: Collagen induced platelet aggregation; assay type: cell-based, human; conditions: for Reversibility of aggregation block upon a wash of the inhibitor treated platelets: up to 30 μM Casin, FIG. 3D lower panel
Method: FIG. 3D. Collagen induced aggregation is blocked by 10 μM Casin (upper panel) and is reversible (up to 30 μM Casin) upon a wash of the inhibitor treated platelets (lower panel).
FIG. 4D. Collagen induced aggregation is blocked by NSC23766 in a dose-dependent fashion.
FIG. 4E. Inhibition of collagen induced platelet aggregation by NSC23766 (50 μM) is reversible upon a wash of the inhibitor treated platelets.
(§2) FIG. 5D. Collagen induced aggregation is inhibited by G04 (upper panel). Similar to collagen, thrombin induced aggregation (data not shown) is blocked by G04 in a dose-dependent fashion (upper panel) and is reversible upon a wash of the inhibitor treated platelets (lower panel).
as §1, with “3C). […]” for “3C).”
(§3) Finally, G04/Rhosin was also developed by us as a RhoA GTPase activation site inhibitor that transiently and specifically blocks RhoA activity and RhoA-mediated signaling functions (36, 37). […] Effect by collagen or thrombin is reversible (FIG. 5D, lower).

platelets [2] = test: Platelet actin filopodia structure / shape change, rhodamine-phalloidin staining; assay type: cell-based, human; conditions: Casin 10 μM, platelets adhered to coated collagen surface, FIG. 3C
Method: FIG. 3C. Fibrinogen mediated platelet actin filopedia structure is blocked by Casin (10 μM). Rhodamine conjugated phalloidin-staining of platelets adhered to coated collagen surface.
as §1

[3] = system: C57Bl/6 murine carboxyfluorescein-labeled platelets; test: Recovery and survival of refrigerated platelets after infusion in congenic mice; assay type: in vivo; conditions: for Platelet 24-hour recovery in vivo / Platelet survival in vivo: refrigerated platelets stored at 0° C.; for Platelet 24-hour recovery in vivo: FIG. 6B; for Platelet survival in vivo: FIG. 6C
Method: FIG. 6C-FIG. 6D. Platelet recovery at different time points. Donor platelets were stored at room temperature (squares) or pretreated with a mixed Rho GTPase inhibitors (50 μM NSC23766, 10 μM CASIN and/or 75 μM G04) or no drug (control). Data are presented as mean SD. *p<0.01 (Anova test with Bonferroni correction, between refrigerated with no inhibitor and refrigerated with triple inhibitor combination).
FIG. 7 depicts effects of Rho GTPase inhibitor combinations on platelet survival upon transfusion. Platelet recovery at different time points is shown. Donor platelets were stored at room temp (squares) or pretreated with a mixed Rho GPase inhibitors (50 uM NSC23766, 10 uM CASIN and/or 75 uM G04) or no drug (Ctrl). Data are presented as mean±SD. *p<0.01 (Anova test with Bonferroni correction, between refrigerated with no inhibitor and refrigerated with triple inhibitor combination).
A combination of CASIN (10 μM), G04 (75 μM) and/or NSC23766 were used in C57Bl/6 murine carboxyfluorescein-labeled platelets incubated at 0° C. or 5° C. for 3.5 hours. After re-warming, platelets were infused in 5 congenic mice (per group) and compared with control (room temperature stored) and refrigerated, untreated platelet group (FIG. 7). […] In a second experiment focused on the specific combinations with more activity to reverse the survival impairment associated with the use of Rho GTPase inhibitors, we analyzed the 24-hour recovery (%) and survival (hours) of platelets that had been stored in presence of several combinations of drugs (FIG. 6A).

platelets [4] = test: Platelet actin lamellopodia structure / spreading, rhodamine-phalloidin staining; assay type: cell-based, human; conditions: for Fibrinogen-mediated platelet actin lamellopodia structure: NSC23766 50 μM, FIG. 4C
Method: FIG. 4C. Fibrinogen-mediated platelet actin lamellopodia structure is blocked by NSC23 766 (50 μM). Rhodamine conjugated phalloidin-staining of platelets adhered to coated collagen surface.
FIG. 5C. U46629 ([…]/Fibrinogen (3 μM)-mediated platelet actin lamellopodia structure is blocked by G04 (30 μM). Rhodamine conjugated phalloidin-staining of platelets adhered to coated collagen surface.
Similarly, Applicant has identified an inhibitor of Rac, NSC23766 (30-34), with an ability to impair Rac1 activation by multiple activating signals which may be crucial in platelet signaling associated with GpIb/GpX (35). NSC23766 was discovered in a structure-based virtual screening of compounds that fit into a surface groove of Rac 1 known to be critical for guanine nucleotide exchange factor specification (34) (FIG. 4A).
as §3

RhoA [5] = biological target: T2, RhoA (Homo sapiens, UniProt P61586); conditions: binding to surface area sandwiching Trp58 of RhoA; cited from earlier work
Target sequence in this assay (P61586 whole entry, species assumed): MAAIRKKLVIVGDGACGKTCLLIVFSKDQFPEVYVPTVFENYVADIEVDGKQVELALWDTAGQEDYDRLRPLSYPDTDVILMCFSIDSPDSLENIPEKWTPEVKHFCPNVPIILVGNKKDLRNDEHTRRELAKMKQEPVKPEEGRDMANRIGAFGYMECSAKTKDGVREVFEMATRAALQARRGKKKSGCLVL

RhoA [6] = biological target: T2, RhoA; test: Collagen-induced RhoA activity in platelets, GST-Rhotekin pulldown assay; assay type: cell-based; design: endogenous in cells; host or cells: human platelets; conditions: G04 50 μM, FIG. 5B
Method: FIG. 5B. Collagen-induced RhoA activity is inhibited by Go4 (50 μM) in a GST-Rhotekin pulldown assay.
as §3
Target sequence in this assay (P61586 whole entry): as the sequence (P61586 whole entry, species assumed) above

RhoA [7] = biological target: T2, RhoA; conditions: cited from earlier work
Target sequence in this assay (P61586 whole entry, species assumed): as above

platelets [8] = test: Thrombin induced platelet aggregation; assay type: cell-based, human
Source text: as §2, §3

OCCNC1CCCc2c1[nH]c1ccc(-c3ccccc3)cc21 (stereo not drawn) [CASIN]
Hematopoietic stem cell aging (hematopoietic stem cell): suppress
Collagen-induced Cdc42 activation (Cdc42): inhibits
Collagen-induced Cdc42 activation (Cdc42; listed as Casin): inhibited
Collagen induced aggregation (platelets [1]; 10 μM Casin, FIG. 3D upper panel): prevention
Collagen induced aggregation (platelets [1]; 10 μM Casin, FIG. 3D upper panel, listed as Casin): blocked
Reversibility of aggregation block upon a wash of the inhibitor treated platelets (platelets [1]): can be reversed
Reversibility of aggregation block upon a wash of the inhibitor treated platelets (platelets [1]; listed as Casin): reversible
Platelet actin filopodia structure / collagen-induced platelet shape changes (platelets [2]): prevents
Platelet actin filopodia structure / collagen-induced platelet shape changes (platelets [2]; listed as Casin): blocked
Platelet 24-hour recovery in vivo [3]: did not improve
Platelet survival in vivo [3]: did not improve

CCN(CC)CCCC(C)Nc1nc(C)cc(Nc2ccc3nc(C)cc(N)c3c2)n1 (racemic) [NSC23766]
Reversibility of inhibition of collagen induced platelet aggregation upon a wash (platelets [1]; NSC23766 50 μM, FIG. 4E): reversible
Collagen induced aggregation (platelets [1]; NSC23766, dose-dependent fashion, FIG. 4D): reversibly inhibits; also recorded: blocked
Fibrinogen-mediated platelet actin lamellopodia structure (platelets [4]): effectively block
Fibrinogen-mediated platelet actin lamellopodia structure (platelets [4]; listed as NSC23 766): blocked
Reversal of the survival deficiency (storage lesion) induced by refrigerated storage ([3]; platelets incubated at 0° C. or 5° C. for 3.5 hours, infused in congenic mice, 50 uM NSC23766, 10 uM CASIN and/or 75 uM G04, FIG. 7): did not result in significant reversal

N[C@H](Cc1c[nH]c2ccccc12)C(=O)N/N=C/c1ccc2nccnc2c1 [G04]
Collagen induced aggregation (platelets [1]; G04, FIG. 5D upper panel): inhibited
Reversibility of effect on collagen induced aggregation (platelets [1]; G04, wash of inhibitor treated platelets, FIG. 5D lower): reversible
Kd (RhoA [5]): submicromolar
Collagen-induced RhoA activity (RhoA [6]): specifically inhibits
Collagen-induced RhoA activity (RhoA [6]; listed as Go4): inhibited
GEF-catalyzed RhoA activation (RhoA [7]): effectively inhibits
Thrombin induced aggregation (platelets [8]; G04, dose-dependent fashion, data not shown): blocked
Reversibility of block of thrombin induced aggregation upon a wash (platelets [8]; G04, FIG. 5D lower panel): reversible
U46629/Fibrinogen-mediated platelet actin lamellopodia structure (platelet spreading) (platelets [4]; G04 30 μM, U46629 10 mM, Fibrinogen 3 μM, FIG. 5C): inhibits; also recorded: blocked
Platelet 24-hour recovery in vivo [3]: did not improve
Platelet survival in vivo [3]: did not improve
